Test results as given in US20240124417A1, “COMPOUNDS USEFUL AS IMMUNOMODULATORS” (Bristol-Myers Squibb Company, priority 2019, published 2024).

These compounds were tested against T1, PD-1/PD-L1 (Homo sapiens, UniProt Q9NZQ7) (assay: PD-1/PD-L1 Homogenous Time-Resolved Fluorescence (HTRF) binding assay). Details: PD-L1-His 10 nM, PD-1-Ig 20 nM.
T1 construct: TVMV protease site linker (C); made in house; host or cells: HEK293T cells
In short: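 Inhibitors pre-incubated 15 min with PD-L1-His extracellular domain (10 nM final) in dPBS with 0.1% BSA and 0.05% Tween-20, then PD-1-Ig (20 nM final) added for a further 15 min. Read-out by HTRF with europium cryptate anti-Ig (1 nM) and APC anti-His (20 nM). Related pairs: PD-1-Ig/PD-L2-His (20/5 nM), CD80-His/PD-L1-Ig (100/10 nM).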

T1 sequence (Q9NZQ7 18-239): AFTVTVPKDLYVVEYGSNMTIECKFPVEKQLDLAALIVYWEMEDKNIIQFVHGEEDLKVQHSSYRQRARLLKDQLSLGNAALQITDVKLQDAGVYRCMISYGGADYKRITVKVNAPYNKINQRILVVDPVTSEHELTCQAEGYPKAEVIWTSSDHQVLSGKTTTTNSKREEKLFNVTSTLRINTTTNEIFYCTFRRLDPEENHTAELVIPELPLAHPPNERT

Row | IC50 | SMILES
1 | 2.3 nM | Cc1c(COc2cc(OCc3cncc(C#N)c3)c(CN(C)C(C)c3nnn[nH]3)cc2Cl)cccc1-c1cccc(OCCCN2CC[C@@H](O)C2)c1C (stereo partly drawn) [Example 1005, 5-((2-(((1-(1H-Tetrazol-5-yl)ethyl)(methyl)amino)methyl)-4-chloro-5-((3′-(3-((R)-3-hydroxypyrrolidin-1-yl)propoxy)-2,2′-dimethyl-[1,1′-biphenyl]-3-yl)methoxy)phenoxy)methyl)nicotinonitrile]
2 | 3.3 nM | Cc1c(COc2cc(OCc3cncc(C#N)c3)c(CN(C)CCc3nc4ccccc4n3C)cc2Cl)cccc1-c1cccc(OCCCN2CC[C@@H](O)C2)c1C [Example 2510, (R)-5-((4-chloro-5-((3′-(3-(3-hydroxypyrrolidin-1-yl)propoxy)-2,2′-dimethyl-[1,1′-biphenyl]-3-yl)methoxy)-2-((methyl(2-(1-methyl-1H-benzo[d]imidazol-2-yl)ethyl)amino)methyl)phenoxy)methyl)nicotinonitrile]
3 | 3.1 nM | Cc1c(COc2cc(OCc3cncc(C#N)c3)c(CNCc3csc(N)n3)cc2Cl)cccc1-c1cccc(OCCCN2CC[C@@H](O)C2)c1C [Example 2520, (R)-5-((2-((((2-aminothiazol-4-yl)methyl)amino)methyl)-4-chloro-5-((3′-(3-(3-hydroxypyrrolidin-1-yl)propoxy)-2,2′-dimethyl-[1,1′-biphenyl]-3-yl)methoxy)phenoxy)methyl)nicotinonitrile]
4 | 3.6 nM | Cc1c(COc2cc(OCc3cncc(C#N)c3)c(CN3CCc4c(ncn4C)C3)cc2Cl)cccc1-c1cccc(OCC2CCCN(C)C2)c1Cl (stereo not drawn) [Example 2592, 5-((4-chloro-5-((2′-chloro-2-methyl-3′-((1-methylpiperidin-3-yl)methoxy)-[1,1′-biphenyl]-3-yl)methoxy)-2-((1-methyl-1,4,6,7-tetrahydro-5H-imidazo[4,5-c]pyridin-5-yl)methyl)phenoxy)methyl)nicotinonitrile]
5 | 5.9 nM | Cc1c(COc2cc(OCc3cncc(C#N)c3)c(CNCc3nc4ccccc4s3)cc2Cl)cccc1-c1cccc(OCC2CCCN(C)C2)c1Cl (stereo not drawn) [Example 2611, 5-((2-(((benzo[d]thiazol-2-ylmethyl)amino)methyl)-4-chloro-5-((2′-chloro-2-methyl-3′-((1-methylpiperidin-3-yl)methoxy)-[1,1′-biphenyl]-3-yl)methoxy)phenoxy)methyl)nicotinonitrile]
6 | 0.5 nM | Cc1c(COc2cc(OCc3cncc(C#N)c3)c(CN(C)Cc3ncc[nH]3)cc2Cl)cccc1-c1cccc(OCCCN2CC[C@@H](O)C2)c1C [Example 2008, (R)-5-((2-((((1H-imidazol-2-yl)methyl)(methyl)amino)methyl)-4-chloro-5-((3′-(3-(3-hydroxypyrrolidin-1-yl)propoxy)-2,2′-dimethyl-[1,1′-biphenyl]-3-yl)methoxy)phenoxy)methyl)nicotinonitrile]
7 | 1.4 nM | Cc1c(COc2cc(OCc3cncc(C#N)c3)c(CNCc3ccc4cc[nH]c4c3)cc2Cl)cccc1-c1cccc(OCC2CCCN(C)C2)c1Cl (stereo not drawn) [Example 2606, 5-((2-((((1H-indol-6-yl)methyl)amino)methyl)-4-chloro-5-((2′-chloro-2-methyl-3′-((1-methylpiperidin-3-yl)methoxy)-[1,1′-biphenyl]-3-yl)methoxy)phenoxy)methyl)nicotinonitrile]
8 | 1.9 nM | CC(=O)NC1CCN(CCCOc2cccc(-c3cccc(COc4cc(OCc5cncc(C#N)c5)c(CN5CCC(c6nnn[nH]6)C5)cc4Cl)c3C)c2Cl)CC1 (stereo not drawn) [Example 1058, N-(1-(3-((3′-((4-((3-(1H-Tetrazol-5-yl)pyrrolidin-1-yl)methyl)-2-chloro-5-((5-cyano-pyridin-3-yl)methoxy)phenoxy)methyl)-2-chloro-2′-methyl-[1,1′-biphenyl]-3-yl)oxy)-propyl)piperidin-4-yl)acetamide]
9 | 3.6 nM | CC(=O)NC1CCN(CCCOc2cccc(-c3cccc(COc4cc(OCc5cncc(C#N)c5)c(CN5CCCCC5c5cn[nH]c5)cc4Cl)c3C)c2Cl)CC1 (stereo not drawn) [Example 1059, N-(1-(3-((3′-((4-((2-(1H-Pyrazol-4-yl)piperidin-1-yl)methyl)-2-chloro-5-((5-cyano-pyridin-3-yl)methoxy)phenoxy)methyl)-2-chloro-2′-methyl-[1,1′-biphenyl]-3-yl)oxy)-propyl)piperidin-4-yl)acetamide]
10 | 89.5 nM | Cc1[nH]cnc1COc1cc(OCc2cccc(-c3cccc(OCCCN4CC[C@@H](O)C4)c3C)c2C)c(Cl)cc1CNCc1ccnc(C#N)n1 [Example 2042, (R)-4-(((5-chloro-4-((3′-(3-(3-hydroxypyrrolidin-1-yl)propoxy)-2,2′-dimethyl-[1,1′-biphenyl]-3-yl)methoxy)-2-((5-methyl-1H-imidazol-4-yl)methoxy)benzyl)amino)methyl)pyrimidine-2-carbonitrile]
11 | 1.9 nM | Cc1c(COc2cc(OCc3cncc(C#N)c3)c(CN3CCC(c4nnn[nH]4)C3)cc2Cl)cccc1-c1cccc(OCCCN2CC[C@@H](O)C2)c1C (stereo partly drawn) [Example 1017, 5-((2-((3-(1H-Tetrazol-5-yl)pyrrolidin-1-yl)methyl)-4-chloro-5-((3′-(3-((R)-3-hydroxy-pyrrolidin-1-yl)propoxy)-2,2′-dimethyl-[1,1′-biphenyl]-3-yl)methoxy)phenoxy)methyl)-nicotinonitrile]
12 | 9.3 nM | Cc1c(COc2cc(OCc3cncc(C#N)c3)c(CNCc3ncn[nH]3)cc2Cl)cccc1-c1cccc(OCCCN2CC[C@@H](O)C2)c1C [Example 2002, (R)-5-((2-((((1H-1,2,4-triazol-5-yl)methyl)amino)methyl)-4-chloro-5-((3′-(3-(3-hydroxypyrrolidin-1-yl)propoxy)-2,2′-dimethyl-[1,1′-biphenyl]-3-yl)methoxy)phenoxy)methyl)nicotinonitrile]
13 | 4.2 nM | Cc1c(COc2cc(OCc3cncc(C#N)c3)c(CN3CCCC(c4nnc[nH]4)C3)cc2Cl)cccc1-c1cccc(OCCCN2CC[C@@H](O)C2)c1C (stereo partly drawn) [Example 1008, 5-((2-((3-(4H-1,2,4-Triazol-3-yl)piperidin-1-yl)methyl)-4-chloro-5-((3′-(3-((R)-3-hydroxypyrrolidin-1-yl)propoxy)-2,2′-dimethyl-[1,1′-biphenyl]-3-yl)methoxy)phenoxy)-methyl)nicotinonitrile]
14 | 0.5 nM | Cc1c(COc2cc(OCc3cncc(C#N)c3)c(CN(C)Cc3ncco3)cc2Cl)cccc1-c1cccc(OCCCN2CC[C@@H](O)C2)c1C [Example 2550, (R)-5-((4-chloro-5-((3′-(3-(3-hydroxypyrrolidin-1-yl)propoxy)-2,2′-dimethyl-[1,1′-biphenyl]-3-yl)methoxy)-2-((methyl(oxazol-2-ylmethyl)amino)methyl)phenoxy)methyl)nicotinonitrile]
15 | 8.3 nM | CCc1csc(CNCc2cc(Cl)c(OCc3cccc(-c4cccc(OCC5CCCN(C)C5)c4Cl)c3C)cc2OCc2cncc(C#N)c2)n1 (stereo not drawn) [Example 2622, 5-((4-chloro-5-((2′-chloro-2-methyl-3′-((1-methylpiperidin-3-yl)methoxy)-[1,1′-biphenyl]-3-yl)methoxy)-2-((((4-ethylthiazol-2-yl)methyl)amino)methyl)phenoxy)methyl)nicotinonitrile]
16 | 4.7 nM | Cc1c(COc2cc(OCc3cncc(C#N)c3)c(CNC(C)(C)c3ncon3)cc2Cl)cccc1-c1cccc(OCC2CCCN(C)C2)c1Cl (stereo not drawn) [Example 2620, 5-((2-(((2-(1,2,4-oxadiazol-3-yl)propan-2-yl)amino)methyl)-4-chloro-5-((2′-chloro-2-methyl-3′-((1-methylpiperidin-3-yl)methoxy)-[1,1′-biphenyl]-3-yl)methoxy)phenoxy)methyl)nicotinonitrile]
17 | 8.2 nM | Cc1c(COc2cc(OCc3cncc(C#N)c3)c(CNCc3ccnc(C#N)n3)cc2Cl)cccc1-c1cccc(OCCCN2CC[C@@H](O)C2)c1C [Example 2040, (R)-4-(((5-chloro-2-((5-cyanopyridin-3-yl)methoxy)-4-((3′-(3-(3-hydroxypyrrolidin-1-yl)propoxy)-2,2′-dimethyl-[1,1′-biphenyl]-3-yl)methoxy)benzyl)amino)methyl)pyrimidine-2-carbonitrile]
18 | 3.5 nM | COc1cc(OCc2cccc(-c3cccc(OCC4CCCN(C)C4)c3Cl)c2C)c(Cl)cc1CNCc1cn[nH]c1 (stereo not drawn) [Example 2056, N-((1H-pyrazol-4-yl)methyl)-1-(5-chloro-4-((2′-chloro-2-methyl-3′-((1-methylpiperidin-3-yl)methoxy)-[1,1′-biphenyl]-3-yl)methoxy)-2-methoxyphenyl)methanamine]
19 | 2.7 nM | Cc1c(COc2cc(OCc3cncc(C#N)c3)c(CN(C)Cc3nccs3)cc2Cl)cccc1-c1cccc(OCCCN2CC[C@@H](O)C2)c1C [Example 2533, (R)-5-((4-chloro-5-((3′-(3-(3-hydroxypyrrolidin-1-yl)propoxy)-2,2′-dimethyl-[1,1′-biphenyl]-3-yl)methoxy)-2-((methyl(thiazol-2-ylmethyl)amino)methyl)phenoxy)methyl)nicotinonitrile]
20 | 1.6 nM | Cc1c(COc2cc(OCc3cncc(C#N)c3)c(CNCc3cc4ccccn4n3)cc2Cl)cccc1-c1cccc(OCC2CCCN(C)C2)c1Cl (stereo not drawn) [Example 2602, 5-((4-chloro-5-((2′-chloro-2-methyl-3′-((1-methylpiperidin-3-yl)methoxy)-[1,1′-biphenyl]-3-yl)methoxy)-2-(((pyrazolo[1,5-a]pyridin-2-ylmethyl)amino)methyl)phenoxy)methyl)nicotinonitrile]
21 | 2.2 nM | Cc1c(COc2cc(OCc3cncc(C#N)c3)c(CNCCc3nc4cc(Cl)ccc4[nH]3)cc2Cl)cccc1-c1cccc(OCC2CCCN(C)C2)c1Cl (stereo not drawn) [Example 2613, 5-((4-chloro-2-(((2-(5-chloro-1H-benzo[d]imidazol-2-yl)ethyl)amino)methyl)-5-((2′-chloro-2-methyl-3′-((1-methylpiperidin-3-yl)methoxy)-[1,1′-biphenyl]-3-yl)methoxy)phenoxy)methyl)nicotinonitrile]
